Laboratory results published in publication PMC10410440, “Preclinical PK investigation of a novel IDO1/TDO dual inhibitor—SHR9146 in mouse plasma and tissues by LC-MS/MS” (Frontiers in Oncology, 2023).
Entries after “also recorded” stand apart in the source; their conditions may differ. Where two headings read alike, the source gives them in different places.

Experiment: Tissue distribution of SHR9146 in mice after oral gavage of 40 mg/kg
Assay type: in vivo, ICR mice
Conditions: for concentration at 6 h / concentration at 24 h / concentration at 1 h / concentration at 3 h: male, ICR, mouse, po, 40 mg/kg oral gavage
Procedure: ICR mice with body weight 16–26 g were supplied by Shanghai Lingchang Biotechnology Co., Ltd. (animal breeding license number SCXK (Shanghai) 2013-0018) and housed at Shanghai Institute of Materia Medica, Chinese Academy of Sciences [animal use license number SYXK (Shanghai) 2015-0027]. The mice used in this study were fasted overnight for 12 h but had free access to water. Food was supplied 4 h post-dose. All experiments in this study were conducted in accordance with the Guidelines for the Care and Use of Laboratory Animals of Shanghai Institute of Materia Medica, Chinese Academy of Sciences.
Another set of 30 mice were randomly assigned into five groups with equal numbers, males and females, for tissue distribution study with oral gavage at a single dose of 40 mg/kg at predetermined different time points: pre-dose and post dose at 1, 3, 6, and 24 h, respectively. The whole brain, heart, liver, spleen, lung, kidney, bladder, pancreas, testis, ovary, uterus, stomach, small intestine, adrenal gland, skin, skeletal muscle, thyroid gland, and abdominal fat tissues as well as the whole blood and plasma samples were harvested. Tissue samples were washed with 0.9% sodium chloride solution to remove the residual blood or contents, blotted on a filter paper, and stored at −70°C prior to the analysis.
Protein precipitation was selected for the pretreatment of both the plasma and the tissue homogenate prepared after thawing at room temperature, cut into pieces, and homogenized with a quintuple methanol–water mixture (1:1, v/v) for each tissue sample.
Briefly as follows, an aliquot of 25-μL plasma or tissue homogenate was spiked with 100 μL of internal standard solution (1 μg/mL for plasma, 0.2 μg/mL for tissue homogenate) and 300 μL of methanol added and vortex mixed for 60 s. The mixture was then centrifuged at 14,000 rpm at 4°C for 5.0 min, and the supernatant was diluted with methanol–water (4:1, v/v) in a ratio of 1:9 for the plasma or 1:1 for the tissue homogenate, and 5 μL of the resulting solution was injected for the LC-MS/MS analysis.
After oral administration of 40 mg/kg SHR9146, samples in different tissues at predetermined time points (pre-drug administration, post-drug administration at 1, 3, 6, and 24 h) were collected and prepared for the analysis. The drug concentrations of SHR9146 (μg/g or μg/mL) were determined for each mouse, and the mean and standard deviation were further obtained (Table S7).

[1] = kidney, 40 mg/kg, Mean (n=3), read-out: SHR9146 concentration in Kidney
[2] = liver, 40 mg/kg, Mean (n=3), read-out: SHR9146 concentration in Liver
[3] = liver, 40 mg/kg, individual mice, read-out: SHR9146 concentration in Liver
[4] = lung, 40 mg/kg, Mean (n=3), read-out: SHR9146 concentration in Lung
[5] = lung, 40 mg/kg, individual mice, read-out: SHR9146 concentration in Lung
[6] = pancreas, 40 mg/kg, Mean (n=3), read-out: SHR9146 concentration in Pancreas
[7] = pancreas, 40 mg/kg, individual mice, read-out: SHR9146 concentration in Pancreas
[8] = plasma, 40 mg/kg, Mean (n=3), read-out: SHR9146 concentration in Plasma
[9] = plasma, 40 mg/kg, individual mice, read-out: SHR9146 concentration in Plasma
[10] = skeletal muscle, 40 mg/kg, Mean (n=3), read-out: SHR9146 concentration in Skeletal muscle
[11] = skeletal muscle, 40 mg/kg, individual mice, read-out: SHR9146 concentration in Skeletal muscle
[12] = skin, 40 mg/kg, Mean (n=3), read-out: SHR9146 concentration in Skin
[13] = small intestine, 40 mg/kg, Mean (n=3), read-out: SHR9146 concentration in Small intestine
[14] = small intestine, 40 mg/kg, individual mice, read-out: SHR9146 concentration in Small intestine
[15] = spleen, 40 mg/kg, Mean (n=3), read-out: SHR9146 concentration in Spleen
[16] = spleen, 40 mg/kg, individual mice, read-out: SHR9146 concentration in Spleen
[17] = stomach, 40 mg/kg, Mean (n=3), read-out: SHR9146 concentration in Stomach
[18] = testis, 40 mg/kg, Mean (n=3), read-out: SHR9146 concentration in Testis
[19] = thyroid gland, 40 mg/kg, Mean (n=3), read-out: SHR9146 concentration in thyroid gland
[20] = thyroid gland, 40 mg/kg, individual mice, read-out: SHR9146 concentration in thyroid gland
[21] = whole blood, 40 mg/kg, Mean (n=3), read-out: SHR9146 concentration in Whole blood
[22] = whole blood, 40 mg/kg, individual mice, read-out: SHR9146 concentration in Whole blood

- concentration at 6 h [1]: 210 ng/g
- concentration at 24 h [1]: 18 ng/g
- concentration at 24 h (kidney, 40 mg/kg, individual mice, read-out: SHR9146 concentration in Kidney): 55 ng/g
- concentration at 1 h [2]: 20000 ng/g
- concentration at 1 h [3]: 22000 ng/g
- concentration at 3 h [2]: 9670 ng/g
- concentration at 6 h [2]: 633 ng/g
- concentration at 24 h [2]: 110 ng/g
- concentration at 24 h [3]: 330 ng/g
- concentration at 1 h [4]: 12500 ng/g
- concentration at 1 h [5]: 13100 ng/g
- concentration at 3 h [4]: 5160 ng/g
- concentration at 6 h [4]: 645 ng/g
- concentration at 6 h [5]: 725 ng/g
- concentration at 24 h [4]: 11700 ng/g
- concentration at 1 h [6]: 12600 ng/g
- concentration at 1 h [7]: 13800 ng/g
- concentration at 3 h [6]: 4870 ng/g
- concentration at 6 h [6]: 67 ng/g
- concentration at 6 h [7]: 74 ng/g
- concentration at 1 h [8]: 9120 ng/mL
- concentration at 1 h [9]: 10100 ng/mL
- concentration at 3 h [8]: 3710 ng/mL
- concentration at 6 h [8]: 49 ng/mL
- concentration at 6 h [9]: 53 ng/mL
- concentration at 1 h [10]: 5600 ng/g
- concentration at 1 h [11]: 6100 ng/g
- concentration at 3 h [10]: 2220 ng/g
- concentration at 6 h [10]: 23 ng/g
- concentration at 6 h [11]: 70 ng/g
- concentration at 1 h [12]: 7210 ng/g
- concentration at 3 h [12]: 3110 ng/g
- concentration at 6 h [12]: 113 ng/g
- concentration at 24 h [12]: 21 ng/g
- concentration at 24 h (skin, 40 mg/kg, individual mice, read-out: SHR9146 concentration in Skin): 64 ng/g
- concentration at 1 h [13]: 22700 ng/g
- concentration at 1 h [14]: 19200 ng/g
- concentration at 3 h [13]: 6910 ng/g
- concentration at 6 h [13]: 90 ng/g
- concentration at 6 h [14]: 117 ng/g
- concentration at 1 h [15]: 4840 ng/g
- concentration at 1 h [16]: 5540 ng/g
- concentration at 3 h [15]: 1700 ng/g
- concentration at 6 h [15]: 17 ng/g
- concentration at 6 h [16]: 51 ng/g
- concentration at 1 h [17]: 38000 ng/g
- concentration at 1 h (stomach, 40 mg/kg, individual mice, read-out: SHR9146 concentration in Stomach): 39900 ng/g
- concentration at 3 h [17]: 10200 ng/g
- concentration at 6 h [17]: 1140 ng/g
- concentration at 24 h [17]: 499 ng/g
- concentration at 1 h [18]: 4000 ng/g
- concentration at 1 h (testis, 40 mg/kg, individual mice, read-out: SHR9146 concentration in Testis): 4160 ng/g
- concentration at 3 h [18]: 1660 ng/g
- concentration at 6 h [18]: 100 ng/g
- concentration at 1 h [19]: 7010 ng/g
- concentration at 1 h [20]: 7250 ng/g
- concentration at 3 h [19]: 2730 ng/g
- concentration at 6 h [19]: 63 ng/g
- concentration at 6 h [20]: 71 ng/g
- concentration at 1 h [21]: 6060 ng/mL
- concentration at 1 h [22]: 6820 ng/mL
- concentration at 3 h [21]: 2440 ng/mL
- concentration at 6 h [21]: 22 ng/mL
- concentration at 6 h [22]: 67 ng/mL
- tissue concentration at 24 h as share of the highest concentration (oral 40 mg/kg, mice, last time point 24 h): around 3.1%
Structure (SMILES): OCCn1cc(-c2ccc(N3CCC([C@H]4c5c(F)cccc5-c5cncn54)CC3)cc2)cn1 [SHR9146]
- distribution into brain (oral 40 mg/kg, mice, 40 mg/kg): lowest; also recorded: rarely distributed in the brain
- tissue distribution (oral 40 mg/kg, mice, 40 mg/kg): widely distributed in various tissues and mainly distributed in the stomach, adrenal gland, liver, and lung
